According to PubChem BioAssay AID1259407 (Chemical Carcinogenesis Research Information System (CCRIS), 2018):
Activity calls are given as the source filed them. No rule for the calls is given here.

Test system: CCRIS mutagenicity, Ames/micronucleus/aberration tests
Experiment: CCRIS mutagenicity studies

CC(=O)c1ccccn1
mutagenic call (Test System: AMES SALMONELLA TYPHIMURIUM, Strain/Indicator: TA98, Metabolic Activation: HAMSTER, LIVER, S-9, AROCLOR 1254, Method: STANDARD PLATE): inactive; negative
mutagenic call (Test System: AMES SALMONELLA TYPHIMURIUM, Strain/Indicator: TA98, Metabolic Activation: NONE, Method: STANDARD PLATE): inactive; negative
mutagenic call (Test System: AMES SALMONELLA TYPHIMURIUM, Strain/Indicator: TA98, Metabolic Activation: RAT, LIVER, S-9, AROCLOR 1254, Method: STANDARD PLATE): inactive; negative
mutagenic call (Test System: AMES SALMONELLA TYPHIMURIUM, Strain/Indicator: TA100, Metabolic Activation: HAMSTER, LIVER, S-9, AROCLOR 1254, Method: STANDARD PLATE): inactive; negative
mutagenic call (Test System: AMES SALMONELLA TYPHIMURIUM, Strain/Indicator: TA100, Metabolic Activation: NONE, Method: STANDARD PLATE): inactive; negative
mutagenic call (Test System: AMES SALMONELLA TYPHIMURIUM, Strain/Indicator: TA100, Metabolic Activation: RAT, LIVER, S-9, AROCLOR 1254, Method: STANDARD PLATE): inactive; negative
mutagenic call (Test System: AMES SALMONELLA TYPHIMURIUM, Strain/Indicator: TA1535, Metabolic Activation: HAMSTER, LIVER, S-9, AROCLOR 1254, Method: STANDARD PLATE): inactive; negative
mutagenic call (Test System: AMES SALMONELLA TYPHIMURIUM, Strain/Indicator: TA1535, Metabolic Activation: NONE, Method: STANDARD PLATE): inactive; negative
mutagenic call (Test System: AMES SALMONELLA TYPHIMURIUM, Strain/Indicator: TA1535, Metabolic Activation: RAT, LIVER, S-9, AROCLOR 1254, Method: STANDARD PLATE): inactive; negative
mutagenic call (Test System: AMES SALMONELLA TYPHIMURIUM, Strain/Indicator: TA1537, Metabolic Activation: HAMSTER, LIVER, S-9, AROCLOR 1254, Method: STANDARD PLATE): inactive; negative
mutagenic call (Test System: AMES SALMONELLA TYPHIMURIUM, Strain/Indicator: TA1537, Metabolic Activation: NONE, Method: STANDARD PLATE): inactive; negative
mutagenic call (Test System: AMES SALMONELLA TYPHIMURIUM, Strain/Indicator: TA1537, Metabolic Activation: RAT, LIVER, S-9, AROCLOR 1254, Method: STANDARD PLATE): inactive; negative
mutagenic call (Test System: AMES SALMONELLA TYPHIMURIUM, Strain/Indicator: TA1538, Metabolic Activation: HAMSTER, LIVER, S-9, AROCLOR 1254, Method: STANDARD PLATE): inactive; negative
mutagenic call (Test System: AMES SALMONELLA TYPHIMURIUM, Strain/Indicator: TA1538, Metabolic Activation: NONE, Method: STANDARD PLATE): inactive; negative
mutagenic call (Test System: AMES SALMONELLA TYPHIMURIUM, Strain/Indicator: TA1538, Metabolic Activation: RAT, LIVER, S-9, AROCLOR 1254, Method: STANDARD PLATE): inactive; negative
mutagenic call (Test System: MOUSE LYMPHOMA, Strain/Indicator: L5178Y (TK+/TK-), Metabolic Activation: NONE, Method: SUSPENSION/PLATE): active; positive. reevaluation of results: positive
mutagenic call (Test System: MOUSE LYMPHOMA, Strain/Indicator: L5178Y (TK+/TK-), Metabolic Activation: RAT, LIVER, S-9, AROCLOR 1254, Method: SUSPENSION/PLATE): active; positive. reevaluation of results: inconclusive

Nc1nc(F)nc2c1ncn2[C@@H]1O[C@H](CO)[C@@H](O)[C@@H]1O
mutagenic call (Test System: CHINESE HAMSTER OVARY, Strain/Indicator: CHO/6-THIOGUANINE, Metabolic Activation: NONE): active; positive

C/C=C/C
mutagenic call (Test System: AMES SALMONELLA TYPHIMURIUM, Strain/Indicator: TA98, Metabolic Activation: NONE, Method: GAS EXPOSURE): inactive; negative
mutagenic call (Test System: AMES SALMONELLA TYPHIMURIUM, Strain/Indicator: TA98, Metabolic Activation: RAT LIVER S-9, PHENOBARBITAL AND BETA-NAPHTHOFLAVONE (40%), Method: GAS EXPOSURE): inactive; negative
mutagenic call (Test System: AMES SALMONELLA TYPHIMURIUM, Strain/Indicator: TA100, Metabolic Activation: NONE, Method: GAS EXPOSURE): inactive; negative
mutagenic call (Test System: AMES SALMONELLA TYPHIMURIUM, Strain/Indicator: TA100, Metabolic Activation: RAT LIVER S-9, PHENOBARBITAL AND BETA-NAPHTHOFLAVONE (40%), Method: GAS EXPOSURE): inactive; negative
mutagenic call (Test System: AMES SALMONELLA TYPHIMURIUM, Strain/Indicator: TA1535, Metabolic Activation: NONE, Method: GAS EXPOSURE): inactive; negative
mutagenic call (Test System: AMES SALMONELLA TYPHIMURIUM, Strain/Indicator: TA1535, Metabolic Activation: RAT LIVER S-9, PHENOBARBITAL AND BETA-NAPHTHOFLAVONE (40%), Method: GAS EXPOSURE): inactive; negative
mutagenic call (Test System: AMES SALMONELLA TYPHIMURIUM, Strain/Indicator: TA1537, Metabolic Activation: NONE, Method: GAS EXPOSURE): inactive; negative
mutagenic call (Test System: AMES SALMONELLA TYPHIMURIUM, Strain/Indicator: TA1537, Metabolic Activation: RAT LIVER S-9, PHENOBARBITAL AND BETA-NAPHTHOFLAVONE (40%), Method: GAS EXPOSURE): inactive; negative
mutagenic call (Test System: E.COLI, Strain/Indicator: WP2UVRA, Metabolic Activation: NONE, Method: GAS EXPOSURE): inactive; negative
mutagenic call (Test System: E.COLI, Strain/Indicator: WP2UVRA, Metabolic Activation: RAT LIVER S-9, PHENOBARBITAL AND BETA-NAPHTHOFLAVONE (40%), Method: GAS EXPOSURE): inactive; negative
